According to paper PMC7434893 (British Journal of Cancer, 2020):
pIC50: −log10 of the molar value. Converted amounts (≈) assume the structure as drawn. “And” between values parts separate entries of the source, which are not always exact repeats. Identical values can stand only once.

Key:
[1] = tested on: HCC1143; test: 8-day growth inhibition; format: cell-based; settings: Breast, HCC1143, 8-day assay
[2] = tested on: HT-1080; test: 8-day growth inhibition; format: cell-based; settings: Fibrosarcoma, HT-1080, 8-day assay
[3] = tested on: HEC-50B; test: 8-day growth inhibition; format: cell-based; settings: Endometrial, 8-day assay
[4] = tested on: PARP1; settings: read-out: IC50, enzymatic activity of PARP1; cited from earlier work
[5] = tested on: RL95-2; test: 8-day growth inhibition; format: cell-based; settings: Endometrial, RL95-2, 8-day assay
[6] = tested on: SR; test: 8-day growth inhibition; format: cell-based; settings: B cell lymphoma, 8-day assay
[7] = tested on: HCC70; test: 8-day growth inhibition; format: cell-based; settings: Breast, HCC70, 8-day assay
[8] = tested on: HCT-116; test: 8-day growth inhibition; format: cell-based; settings: Colon, HCT-116, 8-day assay
[9] = tested on: SNG-M; test: 8-day growth inhibition; format: cell-based; settings: Endometrial, 8-day assay
[10] = tested on: NCI-H524; test: 8-day growth inhibition; format: cell-based; settings: SCLC, NCI-H524, 8-day assay
[11] = tested on: Mino; test: 8-day growth inhibition; format: cell-based; settings: MCL, 8-day assay
[12] = tested on: HepG2; test: 8-day growth inhibition; format: cell-based; settings: HCC, HepG2, 8-day assay
[13] = tested on: MC/CAR; test: 8-day growth inhibition; format: cell-based; settings: Myeloma, 8-day assay
[14] = tested on: SNG-ll; test: 8-day growth inhibition; format: cell-based; settings: Endometrial, 8-day assay
[15] = 2-compartment pharmacokinetic model; format: in vivo, human; settings: model estimate
Description: In the second stage, the final parameters from the pharmacokinetic model were fixed for sequential PK/PD modelling.

[16] = tested on: HEC-59; test: 8-day growth inhibition; format: cell-based; settings: Endometrial, HEC-59, 8-day assay
[17] = tested on: SNU-182; test: 8-day growth inhibition; format: cell-based; settings: HCC, SNU-182, 8-day assay
[18] = Food-effect pharmacokinetics, expansion cohort; format: in vivo, human; settings: for Cmax / AUC(0-24h) / AUC(0-inf) / AUC(0-t) / Rac / t1/2 / tmax: 600 mg; for Cmax / AUC(0-24h) / AUC(0-inf) / AUC(0-t) / Rac / t1/2: mean (SD); for tmax: median (min, max)
Experimental: Fed patients were administered E7449 immediately after consuming a meal. Patients were then crossed over to the alternate food regimen on day 15.

[19] = tested on: A549; test: 8-day growth inhibition; format: cell-based; settings: NSCLC, A549, 8-day assay
[20] = tested on: ARH-77; test: 8-day growth inhibition; format: cell-based; settings: Myeloma, ARH-77, 8-day assay
[21] = tested on: MCF-7; test: 8-day growth inhibition; format: cell-based; settings: Breast, MCF-7, 8-day assay
[22] = tested on: HEC-251; test: 8-day growth inhibition; format: cell-based; settings: Endometrial, HEC-251, 8-day assay
[23] = tested on: DB; test: 8-day growth inhibition; format: cell-based; settings: DLBCL (GC), 8-day assay
[24] = tested on: human colon cancer SW480 cells; settings: cited from earlier work
[25] = tested on: HEC-1A; test: 8-day growth inhibition; format: cell-based; settings: Endometrial, 8-day assay
[26] = tested on: PARP; settings: 100 mg/kg, preclinical studies; cited from earlier work
[27] = tested on: MDA-MB-436; test: 8-day growth inhibition; format: cell-based; settings: Breast, MDA-MB-436, 8-day assay
[28] = tested on: sIL-2Rα/CD25; test: Serum biomarker analysis, sIL-2Rα; format: in vivo, human; settings: from 48 h onwards, all dose groups
Experimental: Two pre-dose, multiple post-dose and off-treatment time points were included. Serum samples were tested for concentrations of soluble vascular endothelial growth factor receptor (VEGFR)2, VEGFR3 and soluble interleukin-2 receptor α (sIL-2Rα/CD25), using the bead-based Human Soluble Cytokine Receptor Panel assay kit. The two baseline samples (days −3 and −2 prior to dosing) were averaged, and the mean was used to calculate percent change at each of the post-dosing time points.

[29] = tested on: NCI-H211; test: 8-day growth inhibition; format: cell-based; settings: SCLC, NCI-H211, 8-day assay
[30] = tested on: PARP; test: Sigmoidal inhibitory indirect-response PK/PD model of PAR formation; format: in vivo, human; settings: model estimate
Experimental: The PD measurement utilised in the PK/PD model was the percentage inhibition of the formation of PAR, a marker for PARP activity,[19] which was calculated as % inhibition = […], where baseline was defined as the PAR response at time 0 on day –2.
The model parameters from the PK/PD analysis were then used to simulate the expected PAR responses of additional dosing regimens of E7449. All PK/PD modelling and subsequent response simulations were performed using Phoenix WinNonlin®, version 7.

[31] = tested on: Namalwa; test: 8-day growth inhibition; format: cell-based; settings: Burkitt's lymphoma, 8-day assay
[32] = tested on: MDA-MB-453; test: 8-day growth inhibition; format: cell-based; settings: Breast, MDA-MB-453, 8-day assay
[33] = tested on: MFE-280; test: 8-day growth inhibition; format: cell-based; settings: Endometrial, MFE-280, 8-day assay
[34] = tested on: T47D; test: 8-day growth inhibition; format: cell-based; settings: Breast, 8-day assay
[35] = tested on: MDA-MB-231; test: 8-day growth inhibition; format: cell-based; settings: Breast, MDA-MB-231, 8-day assay

## O=c1[nH]nc2c3c(cccc13)N=C(CN1Cc3ccccc3C1)N2 [E7449]
[1]
  pIC50: 5.43
[2]
  pIC50: 6.08
[3]
  pIC50: 5.46
[4]
  pIC50: 9.00
[5]
  pIC50: 5.67
[6]
  pIC50: 6.59
[7]
  pIC50: 5.03
[8]
  pIC50: 5.77
[9]
  pIC50: 5.87
[10]
  pIC50: 6.16
[11]
  pIC50: 5.47
[12]
  pIC50: 5.42
[13]
  pIC50: 5.64
[14]
  pIC50: 5.28
[15]; central to peripheral compartment
  k12: 0.21 h⁻¹
[15]; all doses fitted
  V/F, apparent volume of distribution for the central compartment: 149.7 L
  ka, absorption rate constant: 0.82 h⁻¹
  ke, first-order elimination rate constant: 0.51 h⁻¹
[15]; peripheral to central compartment
  k21: 0.27 h⁻¹
[16]
  pIC50: 5.61
[17]
  pIC50: 5.27
[18]; fasted (n=10)
  Cmax: 1470 (697) ng/mL
[18]; fasted
  AUC(0-24h): 5510 (1730) (n=9) ng·h/mL
  AUC(0-inf): 4480 (1850) (n=2) ng·h/mL
  AUC(0-t): 5310 (1780) (n=10) ng·h/mL
  Rac: 1.07 (0.03) (n=2)
  t1/2: 6.11 (0.74) (n=2) h
  tmax: 2.01 (0.97, 3.00) h
[18]; fed (n=11)
  Cmax: 863 (563) ng/mL
[18]; fed
  AUC(0-24h): 6150 (3280) ng·h/mL
  AUC(0-inf): 6600 (1430) (n=5) ng·h/mL
  AUC(0-t): 6150 (3270) ng·h/mL
  Rac: 1.08 (0.12) (n=5)
  t1/2: 5.64 (3.17) (n=5) h
  tmax: 4.05 (1.07, 8.18) h
[18]; 600-mg dose
  Increase in AUC (0–24 h or 0-t) with a high-fat meal: ~ 10% and 10%
  Reduction in Cmax with a high-fat meal: 60%
[19]
  pIC50: 5.66
[20]
  pIC50: 5.49
[21]
  pIC50: 5.72
[22]
  pIC50: 5.90
[23]
  pIC50: 5.80
[24]
  Active and total β-catenin: concomitant reduction
  Axin2 levels: significant increase
[25]
  pIC50: 5.53
[26]
  PARP inhibition in tumours: sustained PARP inhibition
[27]
  pIC50: 6.72
[28]
  sIL-2Rα change above baseline: up to 150%
[29]
  pIC50: 6.32
[30]
  kout: 0.52 h⁻¹
[30]; plasma concentration, inhibition of PAR formation in PBMCs
  EC50: 0.11 µg/mL (≈ 0.347 µM)
[30]; rate of formation of PAR
  kin: 35.5 h⁻¹
[31]
  pIC50: 5.60
[32]
  pIC50: 5.21
[33]
  pIC50: 6.11
[34]
  pIC50: 5.11
[35]
  pIC50: 4.60
